Test results: US11389411B2, “Pharmaceutical composition, containing NM23 activator, for inhibiting cancer metastasis” (EWHA UNIVERSITY—INDUSTRY COLLABORATION FOUNDATION, priority 2017, dated 2022)
Like-named read-outs stand apart in the source and are kept apart here.

Key:
[1] = system: MDA-MB-231 luc cells; assay: Breast cancer metastasis model (MDA-MB-231 luc cells in mammary fat pad); type: in vivo, nude mice
Source text: In order to confirm the metastasis suppressing activity of the compound of Formula 2-1 according to the present disclosure in an actual animal model, MDA-MB-231 luc cells were applied to a breast cancer metastasis model.

[2] = molecular target: T1, Nm23-H1 (Homo sapiens, UniProt P15531); assay: Isothermal titration calorimetry; type: binding; conditions: FIG. 4, with and without ATP
T1 sequence (P15531 whole entry): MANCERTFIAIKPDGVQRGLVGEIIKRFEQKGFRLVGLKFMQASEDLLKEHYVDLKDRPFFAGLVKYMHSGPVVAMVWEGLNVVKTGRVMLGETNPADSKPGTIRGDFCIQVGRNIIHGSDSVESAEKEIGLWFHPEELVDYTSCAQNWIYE
Method: An ITC experiment was performed using the ITC200 system (Malvern Inc.), and the data were analyzed using ORIGIN 7.0 program. The concentration of Nm23-H1 protein in the cells was 30 μM, and the syringe contained 300 μM of the activator or 1 mM ATP. The activator was prepared at a concentration of 50 mM in DMSO (dimethyl sulfoxide) and stored at −20° C. ITC buffer contained (pH 7.5) 150 mM NaCl, 3 mM MgCl2 and 20 mM HEPES in up to 2% DMSO. For titration, each 2 μL was injected 20 times 25° C. at intervals of 150 seconds. No evidence of DMSO binding at the nucleotide binding site was observed. The experimental raw data were corrected by subtracting the value for the buffer, and then fitted to a single site binding model. The titration data were fitted using a nonlinear least squares curve-fitting algorithm with three floating variables: stoichiometry (N), dissociation constant (KD), and change of enthalpy of interaction.

[3] = system: Rac1; assay: Rac1 activity assay (active Rac1 pulldown); type: cell-based
Method: MDA-MB-231 cells were grown in a 100 mm dish and treated with the compound of Formula 2-1 or 0.05% DMSO at an indicated concentration for 16 hours. Active Rac1 pulldown assays were performed according to the manufacturer's instructions (Termo Fisher Scientifc).

[4] = system: MDA-MB-231 cells; assay: Invasion assay and transwell migration assay in MDA-MB-231 cells; type: cell-based
Method: (§1) When cells reached a confluence of 70%, the cells were treated with the compound of Formula 2-1 for 16 hours. 1×10^5 cells were suspended in PBS-free medium and added onto a Boyden chamber membrane. 10% PBS-containing culture was added to the bottom of the membrane. The chamber was incubated at 37° C. under 5% CO2 for 4 hours. The migrated cells were fixed and stained with crystal violet/methanol. The cells were photographed, and the migrated cells were counted and normalized to control cells.

[5] = system: A549 cells; assay: Transwell migration and matrigel invasion of A549 cells; type: cell-based; conditions: FIG. 7B
Method: as §1

[6] = molecular target: Nm23-H2 (Homo sapiens, UniProt P22392); assay: NDPK activity assay on Nm23-H2; type: biochemical; conditions: FIG. 3D
Nm23-H2, sequence (P22392 whole entry): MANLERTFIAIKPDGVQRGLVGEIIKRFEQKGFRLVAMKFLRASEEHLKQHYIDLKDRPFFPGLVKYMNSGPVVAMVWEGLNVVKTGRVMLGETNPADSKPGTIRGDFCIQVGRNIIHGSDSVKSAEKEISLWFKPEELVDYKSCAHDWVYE

[7] = system: MDA-MB-231 cells; assay: Immunofluorescence analysis (F-actin, confocal microscopy); type: cell-based; conditions: FIG. 6A
Method: MDA-MB-231 cells were grown on the Secureslip™ (Sigma) cell culture glass cover slip to a confluence of 50 to 70%, and incubated in the presence or absence of the compound of Formula 2-1 for various periods of time. The cells were gently washed with cold HBSS, and then fixed with 4% paraformaldehyde-containing HBSS in RBS for 10 minutes. After washing with HBSS, permeabilization with 0.1% Triton X-100 was performed for 10 minutes at mom temperature. After washing twice with HBSS, the cells were blocked with HBSS containing 3% BSA, 0.2% Tween 20 and 0.2% gelatin at room temperature for 1 hour, and incubated with primary antibody at mom temperature for 1 hour. Then, the cells were incubated with fluorochrome-conjugated species-specific secondary antibodies for 1 hour.
All the antibodies were diluted with 1% BSA-containing HBSS. Coverslips were mounted with anti-fading solution, and viewed using a ×63 objective lens of an LSM510 META (Zeiss) laser scanning confocal microscope.

[8] = molecular target: T1, Nm23-H1; assay: NDPK assay with recombinant Nm23-H1; type: biochemical; conditions: for Relative NDPK activity (±S.D): relative to a DMSO-treated group (DMSO = 1)
Method: (§2) 5 ng of recombinant Nm23-H1 was incubated with 5 μM ADP and a test substance (the compound of Formula 2-1, 3-1 or 4-1) in NDPK assay buffer (20 mM HEPES, 3 mM MgCl2) at mom temperature for 1 minute, and cell-based NDPK assay was performed. A cell lysate obtained from 5,000K MDA-MB-231 cells lysed with a protease inhibitor cocktail and an NDPK assay buffer was centrifuged at 8,000 rpm for 10 minutes at 4° C. 40 μL of the lysate was incubated with the test substance for 5 minutes, and then 50 μM UDP was added thereto and reacted with NDPK. ATP consumption was assessed by an ATP determination kit (Molecular probe, USA).

[9] = system: MDA-MB-231 cells; assay: Cell-based NDPK assay (MDA-MB-231 cell lysate); conditions: FIG. 3C, MDA-MB-231 lysate, concentration dependence
Method: as §2

[10] = molecular target: T1, Nm23-H1; assay: Surface plasmon resonance analysis of interaction with immobilized Nm23-H1; type: binding; conditions: SPR, 25° C.; for Kd: calculated Kd/Ka; for kon: read-out: Ka
Method: The interaction between the compound of Formula 2-1 and Nm23-H1 was analyzed using a surface plasmon resonance instrument (SR7500 DC, Reichert Inc., NY) at 25° C.
Nm23-H1 (1 mg/ml) in 10 mM S.A buffer (pH 4.5) was immobilized using the standard amino coupling at 20 μL/min for 10 minutes on a carboxymethyl dextran hydrogel (CMDH) surface sensor chip (Reichert Technologies, NY) until saturation was achieved.
Different concentrations of the compound of Formula 2-1 (10-160 μM) in binding buffer (10 mM HEPES, pH 7.4, 100 mM NaCl, 1 mM MgCl2, and with or without 2 mM ATP) were allowed to flow over the immobilized Nm23-H1 (approximately 8200 RU) at a rate of 30 μL/min.
The sensor surface was regenerated after each association and dissociation cycle by injecting 2M NaCl for 1 min. Sensorgrams were fitted to a simple 1:1 Langmuir interaction model (A+B⇄AB) using data analysis program Scrubber 2.0 (BioLogic Sofware, Australia, and Kaleida Graph Sofware, Australia).
KD is a value obtained by calculating Kd/Ka.

[11] = FIG. 7A, MDA-MB-231 cells, different concentrations

COc1ccc(/C=C/[C@H]2CCC=C[C@@H]2c2ccc(OC)c(OC)c2)cc1OC [Formula 2-1]
metastasis of the cells to the lung ([1]; FIG. 8, 10 mg/kg daily, 4 weeks): decreased
volume of the tumor ([1]; FIG. 9, 10 mg/kg daily): decreased
cells that metastasized to the lung ([1]; FIG. 10, 10 mg/kg daily): statistically significantly decreased
direct interaction with Nm23-H1 (ITC) [2]: occurred and was further enhanced in the presence of ATP
activity of Rac1 ([3]; FIG. 6B, MDA-MB-231 cells, 16 hours): reduced the activity of Rac1 in a concentration-dependent manner
effect on Rac1 activity after knockdown of Nm23-H1 ([3]; FIGS. 6C and 6D): abolished by knockdown of Nm23-H1
matrigel invasion [4, 11]: reduced
transwell migration [4, 11]: reduced
effect on migration/invasion after knockdown of Nm23-H1 and Nm23-H2 ([4]; FIG. 7C): reduced by knockdown of Nm23-H1 and Nm23-H2
matrigel invasion [5]: reduced
transwell migration [5]: reduced
NDPK activity on Nm23-H2 [6]: showed the same activity
change of F-actin / cell morphology [7]: ruffles decreased and intercellular contact increased
NDPK activity of Nm23-H1 ([8]; FIG. 3A, concentration dependence): increased depending on the concentration
V0, Km of the enzyme (NDPK activity depending on the concentration of UDP) ([8]; FIG. 3B): Km-type activity similar to that of a conventional enzyme activator
Relative NDPK activity (±S.D) [8]: 4.04 (±0.13)
cell-based NDPK activity [9]: increased depending on the concentration
Kd ([10]; 2 nM ATP): 1.49 ± 0.03 µM
kon ([10]; 2 nM ATP): 71 ± 1 M⁻¹ s⁻¹
Kd ([10]; without ATP): 17.9 ± 0.2 µM
kon ([10]; without ATP): 78 ± 1 M⁻¹ s⁻¹

COc1ccc(/C=C/c2ccccc2-c2ccc(OC)c(OC)c2)cc1OC [Formula 3-1]
Relative NDPK activity (±S.D) [8]: 4.11 (±0.16)

COc1ccc(/C=C/[C@H]2CCCCC2c2ccc(OC)c(OC)c2)cc1OC (some centres unmarked) [Formula 4-1]
Relative NDPK activity (±S.D) [8]: 2.41 (±0.29)
